Laboratory results reported in PMC12384620, “Hit-to-Lead Studies of Pyrazinylpiperazines against Visceral Leishmaniasis: Pharmacokinetic Profile and In Vivo Efficacy of Potent Compounds against Leishmania infantum” (ACS Pharmacology & Translational Science, 2025).

Experiments:
L. infantum = experiment: Antileishmanial activity against L. infantum amastigotes in THP-1 macrophages; type: cell-based; conditions: Leishmania infantum; growth of L. infantum in THP-1 macrophages, 72 h
Method: The in vitro anti-L. infantum activity (IC50) of each compound was evaluated on THP-1 cells (human leukemia monocytic cell line) infected with L. infantum promastigotes, and the in vitro cytotoxicity (CC50) was determined over the THP-1 cell line. The selectivity index (SI) was calculated as the ratio of the CC50 value determined in the cytotoxicity assay, divided by the IC50 value determined in the antileishmanial activity assay.
Cells derived from the human monocytic strain THP-1 were cultured in complete Rowell Park Memorial Institute (RPMI)-1640 medium (supplemented with 10% fetal bovine serum, 100 U/mL penicillin, and 100 μg/mL streptomycin). Monocytes were differentiated into macrophages by the addition of 20 ng/mL phorbol myristate acetate (PMA). After 72 h, the macrophages (5 × 10^4), in black 96-well microtiter plates (Corning Incorporated, Corning, NY), were infected with Leishmania (Leishmania) infantum (MHOM/BR/1974/PP75) promastigotes transfected with gene tdTomato, on the second day of the stationary phase (20 parasites per macrophage) for 4 h. […] The IC50 values were determined by nonlinear regression using a variable slope model (log(concentration) vs growth inhibition) with the GraphPadPrism v8.2.0 (CA, USA) software. Controls with uninfected cells, untreated infected cells, and infected cells treated with amphotericin B at 0.25 μM (positive control) or DMSO 1% were used. Quadruplicates were run on the same plate, and the experiments were repeated at least once.

L. braziliensis = experiment: Inhibition of growth of L. braziliensis in THP-1 macrophages; type: cell-based; conditions: Leishmania braziliensis
Description: 1 In Vitro Antileishmanial Potency, Selectivity Index, and ADME Properties of Compounds 1 – 6 | column: L. braziliensis IC50 (μM)^b (SI)^b

[1] = PAMPA gastrointestinal tract permeability; type: in vitro ADME; conditions: for Papp at 8 h, 0.5 mM: PAMPA-GI, read-out: GI Pe
Method: A 10 mM solution of each compound in DMSO was prepared and subsequently homogenized in a 5 mL flask with 4.75 mL PBS (pH 6.6) (10 mM). […] 180 μL of a PBS (pH 7.4)/DMSO (95:5) solution were then added to the wells of a 96-well receiver plate, and 5 μL of a L-α-phosphatidylcholine solution (20 mg/mL in dodecane) to the wells of a 96-well donor plate. After 5 min, 180 μL of the solutions containing each compound were added to the wells of the donor plate, in triplicate, and the donor plate was carefully placed over the receiver plate in a “sandwich-like” system, which was left stirring (50 rpm) for 8 h at rt in a sealed vessel containing 10 mL PBS (pH 7.4). Afterward, the donor plate was removed, and the content of the receiver plate was transferred to a UV reading plate, which was read using a microplate reader (SpectraMax 5 – Molecular Devices). A reference sample for the internal correction of the microplate reader was prepared using 180 μL of the PBS (pH 7.4)/DMSO (95:5) solution (adapted from refs and ). The optical density values obtained from the content of the receiver plate were compared with the ones obtained from readings performed with the initial solutions containing each compound, before their addition to the donor plate. […] The optical density values from the receptor plate were compared to those from experimental controls to determine the F a value for each compound, using Microsoft Excel.

[2] = PAMPA blood-brain barrier permeability; type: in vitro ADME; conditions: for BBB permeation class: PAMPA-BBB classification; for Papp at 0.2 mg/mL: PAMPA-BBB, pH 7.4, read-out: BBB Pe
Method: One mg of each compound was solubilized in ethanol (1 mL) in a 5 mL flask, and an additional 500 μL ethanol and 3.5 mL PBS buffer (pH 7.4) were added to this solution. […] 180 μL of a PBS (pH 7.4)/ethanol (70:30) solution were then added to the wells of a 96-well receiver plate, and 5 μL of a porcine brain lipid solution (20 mg/mL in dodecane) to the wells of a 96-well donor plate. […] Afterward, the donor plate was removed, and the content of the receiver plate was transferred to a UV reading plate, which was read using a microplate reader (SpectraMax 5 – Molecular Devices). A reference sample for the internal correction of the microplate reader was prepared using 180 μL of the PBS (pH 7.4)/ethanol (70:30) solution (adapted from ref ). The optical density values obtained from the content of the receiver plate were compared with the ones obtained from readings performed with the initial solutions containing each compound, before their addition to the donor plate. […] The optical density values for the experimental controls were used to determine the equation of the linear regression (optical density vs P e ), which allowed the determination of the P e value of each compound from the optical density values obtained from the receiver plate, using an in-house Microsoft Excel spreadsheet.

[3] = Metabolic stability in mouse liver microsomes; type: in vitro ADME; conditions: pH 7.4, MLM, with NADPH cofactor; for microsomal CLint at 5 μM: read-out: Clint, intrinsic clearance; for half-life at 5 μM: read-out: t1/2, microsomal half-life
Method: To a microcentrifuge tube was added 1 mg/mL Mouse Liver Microsome (MLM), a NADPH generating system consisting of 1 mM NADP+, 1.5 mM MgCl2, 3.5 mM glucose-6-phosphate and 0.5 U/mL glucose-6-phosphate dehydrogenase, and phosphate buffer (pH 7.4) in a sufficient amount for a total volume of […]. After a 15 min preincubation at 37 °C in a water bath, the enzymatic reactions were started by adding 2 μL of a […] stock solution of each compound to be assessed, reaching a final concentration of 5 μM in the tested compound. , The samples were further incubated at 37 °C under stirring (30 rpm) for predetermined periods (0, 15, 30, 45, and 60 min), and 500 μL chilled MeOH and 500 μL chilled acetonitrile were added before the samples were homogenized and left standing in an ice bath to accelerate protein precipitation. The resulting mixture was centrifugated at 13000 rpm for 15 min at 4 °C, the organic layer was extracted and 2 μL internal standard (clonazepam 5 μM) was added. Finally, the samples were filtered through a PVDF filter (Millex 0.22 μm x 13 mm) and analyzed by HPLC-PDA. ,

[4] = tested on: L. infantum promastigotes; experiment: Flow cytometric cell cycle analysis (PI); type: cell-based, Leishmania infantum; conditions: 24 h, 0.5x, 1x, 2x IC50, PI
Method: Then, the cells were collected, washed twice with 1 × PBS, and fixed in 70% ethanol at 4 °C for 24 h. The fixed parasites were then washed with 1 × PBS and the pellet was treated with 500 μL of RNase A (20 mg/mL) and incubated at 37 °C for 1 h. Subsequently, the parasites were stained with 10 μg/mL propidium iodide (PI) in the dark for 20 min. Cell cycle distribution, determining the percentage of cells in G0, G1, S, and G2/M phases, was analyzed using an Accuri C5 BD flow cytometer. The histograms presented are representative of results obtained from three independent experiments.

[5] = tested on: L. infantum::tdTomato intracellular amastigotes; experiment: Synergism between 2 and Sb^III against intracellular L. infantum amastigotes; type: cell-based, Leishmania infantum; conditions: compounds tested separately, 72 h; read-out: IC50 against intracellular amastigotes of L. infantum
Method: Cells derived from the human monocytic strain THP-1 were cultured in complete Rowell Park Memorial Institute (RPMI)-1640 medium (supplemented with 10% fetal bovine serum, 100 U/mL penicillin, and 100 μg/mL streptomycin). Monocytes were differentiated into macrophages by the addition of 20 ng/mL phorbol myristate acetate (PMA). After 72 h, the macrophages (5 × 10^4), in black 96-well microtiter plates (Corning Incorporated, Corning, NY), were infected with Leishmania (Leishmania) infantum (MHOM/BR/1974/PP75) promastigotes expressing red fluorescence protein on the second day of the stationary phase (20 parasites per macrophage) for 4 h. […] To investigate the possibility of synergism between Sb^III and compound 2, […] different concentrations of these drugs were used (1.0, 0.5, 0.2, 0.1, and 0.05 μg/mL), the solutions of Sb^III and 2 being prepared and diluted the day of the assay. The compounds were tested separately and in combination. […] The EC50 values were determined by nonlinear regression using a Variable slope model (log(concentration) vs growth inhibition) with the GraphPadPrism v8.2.0 (CA, USA) software. By normalizing the data as a fractional response, it was possible to perform the calculation using a Bayesian model. The results were compared to each other to determine whether the combination of compounds has a synergistic, antagonistic or additive effect. Controls with uninfected cells, untreated infected cells, infected cells treated with amphotericin B at 0.25 μM (positive control) or DMSO 1% were used. Quadruplicates were run on the same plate, and the experiments were repeated at least once.

L. infantum::tdTomato = type: in vivo, mouse; conditions: 500 mg/kg/day i.p., 10 days
Method: BALB/c mice (male, 6 to 8 weeks old, 18 to 20 g) were inoculated intravenously (tail vein) with 2 × 10^7 late-log-phase L. infantum promastigotes from Li::tdTomato lines, and randomly assigned into one of the four treatment groups (six mice per group). After 7 days of infection, […] was administered intraperitoneally in a single dose 500 mg/kg/day meglumine antimoniate (Glucantime, Sanofi Medley), both groups treated with 2 received two daily intraperitoneal injections totaling either 50 mg/kg/day or 100 mg/kg/day of 2, and the control group was administered the vehicle solution. For the intraperitoneal injection, 2 was formulated as follows: a stock solution of 2 in DMSO (100 mg/mL) was prepared daily, and a solution of 70% PBS1X, 20% PEG 400 (Polyethylene Glycol 400, Sigma-Aldrich), 0.16% Tween 80 and 10% of 2 (from the stock solution) was prepared. The control group was also administered this solution, replacing 2 with 10% DMSO. All mice were euthanized 3 days after the end of the treatment, and the liver and spleen of each animal were collected.
The number of viable parasites in each organ was determined using a quantitative limiting dilution assay. Briefly, the organs were macerated using an Ultra-Turrax disperser (IKA-Werke GmbH & Co. KG., Staufen, Germany), and a tissue homogenate was obtained with 1 mL of M199 medium. Each tissue homogenate was sequentially diluted (10-fold) in 96-well flat-bottom microtiter black plates and incubated at 26 °C for 10 days. The wells containing motile promastigotes were identified with an inverted microscope (Axiovert 25, Zeiss), and the parasite burden was determined from the highest dilution at which promastigotes had grown after 10 days of incubation.

Compound | IC50 (L. infantum) | IC50 (L. braziliensis) | Fa, fraction absorbed (GI) [1] | BBB permeation class [2] | Papp at 0.2 mg/mL [2] | Papp at 8 h, 0.5 mM [1] | microsomal CLint at 5 μM [3] | half-life at 5 μM [3] | effect on cell cycle progression [4] | IC50 [5] | parasite burden in spleen and liver (L. infantum::tdTomato)
C[C@@H]1[C@H](O)[C@@H](C)/C=C/C=C/C=C/C=C/C=C/C=C/C=C/[C@H](O[C@@H]2O[C@H](C)[C@@H](O)[C@H](N)[C@@H]2O)C[C@@H]2O[C@](O)(C[C@@H](O)C[C@@H](O)[C@H](O)CC[C@@H](O)C[C@@H](O)CC(=O)O[C@H]1C)C[C@H](O)[C@H]2C(=O)O [AmB, Amphotericin B, reference compound] | 0.3 µM | 0.1 µM | – | – | – | – | – | – | – | – | –
CC(C)NCC(O)COc1ccc(CC(N)=O)cc1 (stereo not drawn) [Atenolol, reference compound] | – | – | 1.70% | – | – | – | – | – | – | – | –
COc1ccc(C(=O)N2CCN(c3cnccn3)CC2)cc1 [Compound 3, (4-Methoxyphenyl)(4-(pyrazin-2-yl)piperazin-1-yl)methanone] | 4.5 ± 0.7 µM | 10.1 ± 2.8 µM | 99.90% | CNS± (CNS±: uncertain BBB permeation, 2.0 < P e (10^–6 cm/s) < 4.0) | 2.21 ×10⁻⁶ cm/s | 18.2 ×10⁻⁶ cm/s | 0.925 µL/min/mg | 3.12 h | – | – | –
Nc1ccc(C(=O)N2CCN(c3cnccn3)CC2)cn1 [Compound 4, (6-Aminopyridin-3-yl)(4-(pyrazin-2-yl)piperazin-1-yl)methanone] | 5.1 ± 2.1 µM | 11.9 ± 1.1 µM | 99.91% | – | 1.02 ×10⁻⁶ cm/s | 18.4 ×10⁻⁶ cm/s | 0.675 µL/min/mg | 4.28 h | – | – | –
O=C(c1ccc2cc(O)ccc2c1)N1CCN(c2cnccn2)CC1 [Compound 5, (6-Hydroxynaphthalen-2-yl)(4-(pyrazin-2-yl)piperazin-1-yl)methanone] | 3.3 ± 2.7 µM | 2.6 ± 0.2 µM | 45.70% | – | 0.96 ×10⁻⁶ cm/s | 1.61 ×10⁻⁶ cm/s | 0.8 µL/min/mg | 3.61 h | – | – | –
O=C(c1cccc(O)c1O)N1CCN(c2cnccn2)CC1 [Compound 6, (2,3-Dihydroxyphenyl)(4-(pyrazin-2-yl)piperazin-1-yl)methanone] | 2.8 ± 1.1 µM | 0.2 ± 0.2 µM | 86.26% | CNS+ (CNS+: high BBB permeation, P e (10^–6 cm/s) > 4.0) | 4.51 ×10⁻⁶ cm/s | 5.22 ×10⁻⁶ cm/s | 4.2 µL/min/mg | 0.688 h | – | – | –
CCCCCCCCCCCCCCCCOP(=O)([O-])OCC[N+](C)(C)C [Miltefosine, miltefosine, reference compound] | – | – | – | – | – | – | – | – | same pattern of cell cycle arrest | – | –
[Sb+3] [Sb^III, reference compound] | – | – | – | – | – | – | – | – | – | 2.4 ± 0.47 µM | –
meglumine antimoniate [reference compound] | – | – | – | – | – | – | – | – | – | – | almost completely eradicated
